# Measured values taken from patent US11292807B2 (OCEANS LTD., priority 2015, dated 2022).
# Where two headings read alike, the source gives them in different places.
# Experiments:
# [1] = tested on: THP-1 (acute monocytic leukemia); experiment: CIMA assay, cell viability, THP-1; settings: for Fold change in viability AVG: THP-1
# [2] = tested on: CCD1079SK (fibroblast, noncancerous but proliferating); experiment: CIMA assay, cell viability, CCD1079SK; settings: CCD
# [3] = CIMA assay, cell viability, CCD1079SK; settings: human, Average cell viability, CCD
# A549 (lung carcinoma) = experiment: CIMA assay (colorimetric indicator of metabolic activity), cell viability, A549; settings: for Fold change in viability AVG: A549
# Method: Stock solutions of the extracts were prepared in dimethylsulfoxide (DMSO) at 10 mg/mL and stored in 200 μl aliquots at −20° C. until analysis. This preparation ensured that the DMSO delivered to cells in culture never exceeded 1%.
# Prepared extracts were assessed following chronic exposure conditions in which cells were seeded at 2×10^3 cells/well (96 well-plate) and incubated with test compounds for 72 h. Each compound was evaluated over a range of concentrations (0, 10, 25, 50 or 100 μg/ml). Cell proliferation was initially assessed using a standard colorimetric indicator of metabolic activity (CIMA) assay. In this assay, tetrazole reduction was evaluated as a measure of metabolic function that evaluates mitochondrial activity to determine the extent of cell proliferation within a culture. This assay is based on the reduction of yellow tetrazolium salt to purple formazan by mitochondrial reductases enzyme in viable cells, resulting in a color changed that confers a change in absorbance.
# MDA-MB [4] = settings: MDA-MB
# PC3 = experiment: CIMA assay, cell viability, PC3; settings: for Fold change in viability AVG: PC3
# [5] = tested on: U373 (glioblastoma-astrocytoma); experiment: CIMA assay, cell viability, U373; settings: for Fold change in viability AVG: U373
# [6] = tested on: SKOV3 (ovarian adenocarcinoma); experiment: CIMA assay, cell viability, SKOV3; settings: for Fold change in viability AVG: SKOV
# MDA-MB [7] = experiment: cells; settings: Homo sapiens, read-out: Average cell viability, MDA-MB
structure (smiles),measurement,setting,value
"CC/C=C\C/C=C\C/C=C\C/C=C\CCC(=O)OC(COC(=O)CCCCCCC/C=C\C/C=C\C/C=C\CC)COC1OC(CO)C(O)C(O)C1O (stereo not shown) [Compound 14, MGDG C18:3/C16:4]",viability at 1 µg/mL,"[1]; Homo sapiens, THP-1, read-out: Average cell viability, THP-1, 1 ug/mL",99%
same,viability at 10 µg/mL,"[1]; Homo sapiens, THP-1, read-out: Average cell viability, THP-1, 10 ug/mL",100%
same,viability at 50 µg/mL,"[1]; Homo sapiens, THP-1, read-out: Average cell viability, THP-1, 50 ug/mL",62%
same,viability at 100 µg/mL,"[1]; Homo sapiens, THP-1, read-out: Average cell viability, THP-1, 100 ug/mL",51%
same,THP-1 AVG,"[1]; THP-1, sample at 1 ug/mL",1.13
same,THP-1 AVG,"[1]; THP-1, sample at 10 ug/mL",1.14
same,THP-1 AVG,"[1]; THP-1, sample at 50 ug/mL",0.70
same,THP-1 AVG,"[1]; THP-1, sample at 100 ug/mL",0.58
same,Fold change in viability AVG,[1]; 1 ug/mL,1.12
same,Fold change in viability AVG,[1]; 10 ug/mL,1.14
same,Fold change in viability AVG,[1]; 50 ug/mL,0.70
same,Fold change in viability AVG,[1]; 100 ug/mL,0.58
same,Fold change in viability AVG,[2]; 1 ug/mL,1.12
same,Fold change in viability AVG,[2]; 10 ug/mL,1.05
same,Fold change in viability AVG,[2]; 50 ug/mL,0.54
same,Fold change in viability AVG,[2]; 100 ug/mL,0.21
same,"viability at 72 h, 1 ug/mL","[3]; CCD1079SK fibroblast cells (noncancerous, proliferating), 1 ug/mL",102%
same,"viability at 72 h, 10 ug/mL","[3]; CCD1079SK fibroblast cells (noncancerous, proliferating), 10 ug/mL",96%
same,"viability at 72 h, 50 ug/mL","[3]; CCD1079SK fibroblasts (noncancerous, proliferating), 50 ug/mL",49%
same,"viability at 72 h, 100 ug/mL","[3]; CCD1079SK fibroblasts (noncancerous, proliferating), 100 ug/mL",19%
same,A549 AVG,"A549 (lung carcinoma); A549, sample at 1 ug/mL",1.15
same,A549 AVG,"A549 (lung carcinoma); A549, sample at 10 ug/mL",1.18
same,A549 AVG,"A549 (lung carcinoma); A549, sample at 50 ug/mL",1.03
same,A549 AVG,"A549 (lung carcinoma); A549, sample at 100 ug/mL",0.86
same,Fold change in viability AVG,A549 (lung carcinoma); 1 ug/mL,1.15
same,Fold change in viability AVG,A549 (lung carcinoma); 10 ug/mL,1.18
same,Fold change in viability AVG,A549 (lung carcinoma); 50 ug/mL,1.03
same,Fold change in viability AVG,A549 (lung carcinoma); 100 ug/mL,0.86
same,viability at 1 µg/mL,"A549 (lung carcinoma); Homo sapiens, A549, read-out: Average cell viability, A549, 1 ug/mL",99%
same,viability at 10 µg/mL,"A549 (lung carcinoma); Homo sapiens, A549, read-out: Average cell viability, A549, 10 ug/mL",101%
same,viability at 50 µg/mL,"A549 (lung carcinoma); Homo sapiens, A549, read-out: Average cell viability, A549, 50 ug/mL",88%
same,viability at 100 µg/mL,"A549 (lung carcinoma); Homo sapiens, A549, read-out: Average cell viability, A549, 100 ug/mL",74%
same,MDA-MB AVG,MDA-MB [4]; sample at 1 ug/mL,1.13
same,MDA-MB AVG,MDA-MB [4]; sample at 10 ug/mL,1.11
same,MDA-MB AVG,MDA-MB [4]; sample at 50 ug/mL,0.74
same,MDA-MB AVG,MDA-MB [4]; sample at 100 ug/mL,0.20
same,Fold change in viability AVG,MDA-MB [4]; 1 ug/mL,1.13
same,Fold change in viability AVG,MDA-MB [4]; 10 ug/mL,1.11
same,Fold change in viability AVG,MDA-MB [4]; 50 ug/mL,0.74
same,Fold change in viability AVG,MDA-MB [4]; 100 ug/mL,0.20
same,viability at 1 µg/mL,"PC3; Homo sapiens, PC-3, read-out: Average cell viability, PC3, 1 ug/mL",103%
same,viability at 10 µg/mL,"PC3; Homo sapiens, PC-3, read-out: Average cell viability, PC3, 10 ug/mL",98%
same,viability at 50 µg/mL,"PC3; Homo sapiens, PC-3, read-out: Average cell viability, PC3, 50 ug/mL",66%
same,viability at 100 µg/mL,"PC3; Homo sapiens, PC-3, read-out: Average cell viability, PC3, 100 ug/mL",12%
same,PC3 AVG,"PC3; PC3, sample at 1 ug/mL",1.07
same,PC3 AVG,"PC3; PC3, sample at 10 ug/mL",1.01
same,PC3 AVG,"PC3; PC3, sample at 50 ug/mL",0.68
same,PC3 AVG,"PC3; PC3, sample at 100 ug/mL",0.13
same,Fold change in viability AVG,PC3; 1 ug/mL,1.07
same,Fold change in viability AVG,PC3; 10 ug/mL,1.01
same,Fold change in viability AVG,PC3; 50 ug/mL,0.68
same,Fold change in viability AVG,PC3; 100 ug/mL,0.13
same,viability at 1 µg/mL,"[5]; Homo sapiens, U373 MG, read-out: Average cell viability, U373, 1 ug/mL",109%
same,viability at 10 µg/mL,"[5]; Homo sapiens, U373 MG, read-out: Average cell viability, U373, 10 ug/mL",100%
same,viability at 50 µg/mL,"[5]; Homo sapiens, U373 MG, read-out: Average cell viability, U373, 50 ug/mL",41%
same,viability at 100 µg/mL,"[5]; Homo sapiens, U373 MG, read-out: Average cell viability, U373, 100 ug/mL",9%
same,U373 AVG,"[5]; U373, sample at 1 ug/mL",1.10
same,U373 AVG,"[5]; U373, sample at 10 ug/mL",1.02
same,U373 AVG,"[5]; U373, sample at 50 ug/mL",0.42
same,U373 AVG,"[5]; U373, sample at 100 ug/mL",0.09
same,Fold change in viability AVG,[5]; 1 ug/mL,1.10
same,Fold change in viability AVG,[5]; 10 ug/mL,1.02
same,Fold change in viability AVG,[5]; 50 ug/mL,0.42
same,Fold change in viability AVG,[5]; 100 ug/mL,0.09
same,viability at 1 µg/mL,"[6]; Homo sapiens, SK-OV-3, read-out: Average cell viability, SKOV, 1 ug/mL",109%
same,viability at 10 µg/mL,"[6]; Homo sapiens, SK-OV-3, read-out: Average cell viability, SKOV, 10 ug/mL",97%
same,viability at 50 µg/mL,"[6]; Homo sapiens, SK-OV-3, read-out: Average cell viability, SKOV, 50 ug/mL",92%
same,viability at 100 µg/mL,"[6]; Homo sapiens, SK-OV-3, read-out: Average cell viability, SKOV, 100 ug/mL",67%
same,Fold change in viability AVG,[6]; 1 ug/mL,1.17
same,Fold change in viability AVG,[6]; 10 ug/mL,1.05
same,Fold change in viability AVG,[6]; 50 ug/mL,0.89
same,Fold change in viability AVG,[6]; 100 ug/mL,0.72
same,viability at 1 µg/mL,MDA-MB [7]; 1 ug/mL,104%
same,viability at 10 µg/mL,MDA-MB [7]; 10 ug/mL,102%
same,viability at 50 µg/mL,MDA-MB [7]; 50 ug/mL,68%
same,viability at 100 µg/mL,MDA-MB [7]; 100 ug/mL,18%
